Reference: patent publication US20230027361A1, “METTL3 MODULATORS” (priority 2019, published 2023)
Like-named read-outs stand apart in the source and are kept apart here.

Assays:
MOLM-13 cells [1] = test: MOLM-13 96 Hour Cell Proliferation Assay; assay type: cell-based; conditions: Homo sapiens
Description: MOLM-13 (DSMZ) cells were seeded at 600 cells per well in a volume of 44 μL in a Greiner Bio-One CELLSTAR™ 384 Well Polystyrene Cell Culture clear bottom microplate in RPMI 1640 media containing 10% fetal bovine serum using a Multidrop Combi (ThermoFisher Scientific). Cells were incubated overnight at 37° C. in a humidified tissue culture incubator. To prevent evaporation or to reduce edge effect, add 50 μL or more H2O to an empty plate, cover, and place on top of the cell plates. The Mosquito® HTS Liquid Handler was used to make a compound/media intermediate plate by aliquoting 1 μL of compound from the initial compound dilution plate (concentrations ranging from 10.0 mM to 38.0 nM in 100% DMSO) into Bio-One 384-well polypropylene conical bottom microplate containing 49 μL of media containing the appropriate serum (50-fold dilution, 2% DMSO, compound concentrations ranging from 200.0 μM and […]). The Apricot liquid handling system was used to transfer 6.2 μL compounds from the intermediate plate into the seeding plate containing 44 μL cells (8-fold dilution spanning concentrations 25.0 μM to […], 0.25% DMSO final), and placed in a humidified tissue culture incubator at 37° C. After 96 hours, 25 μL of Cell Titer-Glo reagent (Promega) was added to each well using an Integra liquid handling system. The plate was protected from light using TopSeal-A (Black) film over the entire plate, added White Bottom seal film on the bottom of the entire plate for a better reading on the Envision, and placed on an IKA plate shaker for at 300 rpm for 10 minutes at room temperature. The plate was read on an EnVision plate reader (Perkin Elmer) using the Ultra Sensitive Luminescence protocol. Data analysis was performed by normalizing the raw luminescence units to an average of the positive control values for staurosporine (100% cell death) and the negative control values for DMSO (0% cell death). An IC50 was calculated using a 4-parameter logistic nonlinear regression model in GraphPad Prism.

PRMT5-MEP50 = PRMT5-MEP50 (Homo sapiens, UniProt O14744); test: PRMT5 Assay (PRMT5 biochemical assay)
Chain of PRMT5-MEP50 (O14744 whole entry): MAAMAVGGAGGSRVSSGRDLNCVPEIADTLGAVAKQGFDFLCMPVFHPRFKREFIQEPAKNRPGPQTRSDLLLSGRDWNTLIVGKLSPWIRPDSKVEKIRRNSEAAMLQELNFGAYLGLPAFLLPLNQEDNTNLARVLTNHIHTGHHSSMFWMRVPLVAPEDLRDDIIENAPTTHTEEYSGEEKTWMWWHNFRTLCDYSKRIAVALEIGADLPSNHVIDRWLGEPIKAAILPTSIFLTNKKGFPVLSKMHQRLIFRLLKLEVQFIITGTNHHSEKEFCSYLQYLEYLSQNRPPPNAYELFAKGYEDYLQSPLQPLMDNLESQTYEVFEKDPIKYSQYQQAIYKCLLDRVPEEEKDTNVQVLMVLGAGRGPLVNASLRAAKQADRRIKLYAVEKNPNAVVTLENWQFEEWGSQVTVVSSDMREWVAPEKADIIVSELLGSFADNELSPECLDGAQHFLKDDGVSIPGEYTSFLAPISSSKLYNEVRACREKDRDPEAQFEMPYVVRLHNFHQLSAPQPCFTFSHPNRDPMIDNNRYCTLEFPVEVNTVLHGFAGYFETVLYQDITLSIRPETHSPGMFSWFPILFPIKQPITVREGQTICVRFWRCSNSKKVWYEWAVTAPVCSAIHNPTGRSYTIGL
Chain of PRMT5-MEP50 (Q9BQA1 whole entry partner): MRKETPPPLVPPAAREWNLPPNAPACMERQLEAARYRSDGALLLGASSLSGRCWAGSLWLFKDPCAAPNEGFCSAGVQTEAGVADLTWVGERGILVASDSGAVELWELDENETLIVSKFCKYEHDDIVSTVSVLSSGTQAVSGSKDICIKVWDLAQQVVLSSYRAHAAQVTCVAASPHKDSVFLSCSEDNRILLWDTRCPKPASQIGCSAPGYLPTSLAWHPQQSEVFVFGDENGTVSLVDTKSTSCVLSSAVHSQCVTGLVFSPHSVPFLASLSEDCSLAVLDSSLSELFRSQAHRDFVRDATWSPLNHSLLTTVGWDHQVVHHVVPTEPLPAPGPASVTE
Method in brief: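 PRMT5-MEP50 (2.5 nM final) preincubated 5 min with compound, then reacted 60 min at ambient temperature with 100 nM biotinylated N-acetyl histone H4 peptide and 250 nM 3H-SAM in 20 mM Tris-HCl pH 8.0, 1 mM DTT, 0.01% Tween. Quenched with 15 μM cold SAM; methylated peptide captured on streptavidin flashplates, scintillation counted.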

METTL3/METTL14 = METTL3/METTL14 (Homo sapiens, UniProt Q86U44); test: METTL3-14 Standard Enzyme Assay (METTL3 biochemical assay)
Chain of METTL3/METTL14 (Q86U44 whole entry, species assumed): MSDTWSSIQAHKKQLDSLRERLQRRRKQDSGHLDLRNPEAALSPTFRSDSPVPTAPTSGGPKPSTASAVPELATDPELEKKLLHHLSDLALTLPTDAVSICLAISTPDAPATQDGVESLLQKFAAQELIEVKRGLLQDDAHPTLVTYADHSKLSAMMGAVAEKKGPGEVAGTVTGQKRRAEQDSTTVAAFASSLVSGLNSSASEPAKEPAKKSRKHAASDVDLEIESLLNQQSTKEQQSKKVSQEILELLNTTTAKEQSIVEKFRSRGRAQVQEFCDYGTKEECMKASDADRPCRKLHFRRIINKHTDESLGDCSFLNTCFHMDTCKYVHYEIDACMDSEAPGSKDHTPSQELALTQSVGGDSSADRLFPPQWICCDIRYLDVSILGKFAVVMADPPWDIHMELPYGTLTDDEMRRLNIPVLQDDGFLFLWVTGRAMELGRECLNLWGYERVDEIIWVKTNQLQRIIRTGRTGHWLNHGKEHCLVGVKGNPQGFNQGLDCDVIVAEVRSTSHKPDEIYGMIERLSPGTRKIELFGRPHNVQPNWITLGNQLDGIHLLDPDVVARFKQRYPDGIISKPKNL
Chain of METTL3/METTL14 (Q9HCE5 whole entry partner, species assumed): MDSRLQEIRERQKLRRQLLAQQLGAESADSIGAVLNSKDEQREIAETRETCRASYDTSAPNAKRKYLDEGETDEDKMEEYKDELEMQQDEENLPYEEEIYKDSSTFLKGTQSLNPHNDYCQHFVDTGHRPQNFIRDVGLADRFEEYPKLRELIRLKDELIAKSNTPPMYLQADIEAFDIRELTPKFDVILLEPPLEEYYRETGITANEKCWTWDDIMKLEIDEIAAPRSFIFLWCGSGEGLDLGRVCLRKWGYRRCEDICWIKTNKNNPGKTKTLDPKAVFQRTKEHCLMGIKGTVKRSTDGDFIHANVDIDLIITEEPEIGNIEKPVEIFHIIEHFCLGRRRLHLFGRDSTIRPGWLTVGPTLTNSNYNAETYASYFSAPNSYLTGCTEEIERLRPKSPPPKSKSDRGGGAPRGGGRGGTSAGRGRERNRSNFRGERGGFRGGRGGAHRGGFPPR
Method in brief: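 METTL3/METTL14 at 2.5 nM, preincubated 5 min with compound in 20 mM HEPES pH 7.5, 50 mM KCl, 250 μM MgCl2, 1 mM DTT, at ambient temperature. Started with 100 nM 3′-biotinylated RNA and 100 nM ³H-SAM, quenched at 30 min with 15 μM cold SAM. Methylation read by scintillation on streptavidin flashplates.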

METTL1/WDR4 = METTL1/WDR4 (Homo sapiens, UniProt Q9UBP6); test: METTL1 Assay (METTL1 biochemical assay)
Chain of METTL1/WDR4 (Q9UBP6 whole entry, species assumed): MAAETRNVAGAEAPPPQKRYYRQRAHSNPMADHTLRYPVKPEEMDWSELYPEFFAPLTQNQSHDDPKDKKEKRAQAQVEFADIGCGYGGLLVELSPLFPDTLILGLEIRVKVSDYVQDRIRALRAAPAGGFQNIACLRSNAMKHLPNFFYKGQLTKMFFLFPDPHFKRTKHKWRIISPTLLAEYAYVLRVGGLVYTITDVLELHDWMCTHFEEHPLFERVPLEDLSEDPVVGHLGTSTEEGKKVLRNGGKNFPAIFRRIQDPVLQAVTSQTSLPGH
Chain of METTL1/WDR4 (P57081 whole entry partner, species assumed): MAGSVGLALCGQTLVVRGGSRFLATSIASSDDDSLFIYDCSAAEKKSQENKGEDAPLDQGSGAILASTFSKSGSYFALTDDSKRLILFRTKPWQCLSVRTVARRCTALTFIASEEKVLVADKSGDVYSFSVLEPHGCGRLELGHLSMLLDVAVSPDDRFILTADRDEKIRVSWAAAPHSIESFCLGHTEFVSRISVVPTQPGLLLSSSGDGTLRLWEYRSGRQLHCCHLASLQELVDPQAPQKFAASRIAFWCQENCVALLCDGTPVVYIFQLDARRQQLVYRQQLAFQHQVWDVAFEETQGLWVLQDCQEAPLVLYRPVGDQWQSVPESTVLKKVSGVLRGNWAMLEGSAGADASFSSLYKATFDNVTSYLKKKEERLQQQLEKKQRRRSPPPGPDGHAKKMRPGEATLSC
Description: Assays were performed in a 25 μl-volume in 384-well V-bottom polypropylene microplates (Greiner Bio-One, cat. No. 781280) at ambient temperature. Optimized 1× assay buffer was 20 mM HEPES pH 7.5, 50 mM KCl, 250 μM MgCl2, 1 mM DTT, 0.01% Tween, 0.01% BSG, 0.004 U/μl RNAseOUT (cat. No. 10777019, ThermoFisher Scientific, Waltham, Mass.). For compound screening METTL1/WDR4 (final concentration, f.c.=6.25 nM) was added using a Multidrop Combi (ThermoFisher Scientific, Waltham, Mass.) and preincubated for 5 min. Reactions were started by adding 3′ biotinylated RNA ([…]-biotin) (f.c.=25 nM) and 3H-SAM (f.c.=60 nM) substrates. Reactions proceeded for 20 minutes and were quenched with excess non-radioactive SAM (f.c.=15 μM). The reactions were then transferred to streptavidin-coated flashplates and incubated for 2 hours at 25° C. Following two washing cycles with 0.1% Tween-20, the plates were sealed and read on a TopCount (PerkinElmer, Waltham, Mass.) plate-based scintillation counter. For determination of kinetic parameters, reaction times were optimized so that measurements were taken during the initial velocity phase of the reaction.

MOLM-13 cells [2] = test: MOLM-13 48 Hour Cell Proliferation Assay; assay type: cell-based; conditions: Homo sapiens
Description: MOLM-13 (DSMZ) cells were seeded at 1000 cells per well in a volume of 44 μL in a Falcon 384-well tissue culture treated clear bottom microplate in RPMI 1640 media containing 10% fetal bovine serum using a Multidrop Combi (ThermoFisher Scientific). Cells were incubated overnight at 37° C. in a humidified tissue culture incubator. The Mosquito® HTS Liquid Handler was used to make a compound/media intermediate plate by aliquoting 1 μL of compound from the initial compound dilution plate (concentrations ranging from 10.0 mM to 38.0 nM in 100% DMSO) into a V bottom 384-well screen matrix plate containing 49 μL of media containing the appropriate serum (50-fold dilution, 2% DMSO). The Apricot liquid handling system was used to transfer 6.2 μL compounds from the intermediate plate into the Falcon 384-well tissue culture plate containing 44 μL cells (10-point, 4-fold dilution spanning concentrations 25.0 μM to […], 0.25% DMSO final), and placed in a humidified tissue culture incubator at 37° C. After 48 hours, 25 μL of Cell Titer-Glo reagent (Promega) was added to each well using a Multidrop Combi. The plate was protected from light and placed on an IKA plate shaker for at 300 rpm for 10 minutes at room temperature. The plate was read on an EnVision plate reader (Perkin Elmer) using the Ultra Sensitive Luminescence protocol. Data analysis was performed by normalizing the raw luminescence units to an average of the positive control values for staurosporine (100% cell death) and the negative control values for DMSO (0% cell death). An IC50 was calculated using a 4-parameter logistic nonlinear regression model in GraphPad Prism.

[3] = read-out: PRMT5 IC50, PRMT5 biochemical assay
[4] = read-out: METTL3 IC50, METTL3 biochemical assay
[5] = METTL1 biochemical assay, read-out: METTL1 IC50
[6] = read-out: METTL1 IC50, METTL1 biochemical assay
[7] = PRMT5 biochemical assay, read-out: PRMT5 IC50
[8] = METTL3 biochemical assay, read-out: METTL3 IC50

| Structure (SMILES) | IC50 (MOLM-13 cells [1]) [µM] | IC50 (PRMT5-MEP50; [3]) [µM] | IC50 (METTL3/METTL14; [4]) [µM] | IC50 (METTL1/WDR4; [5]) [µM] | IC50 (PRMT5-MEP50; [7]) [µM] | IC50 (METTL3/METTL14; [8]) [µM] | further results |
| --- | --- | --- | --- | --- | --- | --- | --- |
| CNc1ccc2ccc(OC[C@H]3O[C@@H](n4cc(-c5ccn(C(C)C)n5)c5c(N)ncnc54)[C@@H](F)[C@@H]3O)cc2n1 [I-2] | < 1 | 0.1 to 1 | < 0.01 |  |  |  |  |
| CCn1ccc(-c2cn([C@@H]3O[C@H](COc4ccc5ccc(NC)nc5c4)[C@@H](O)[C@@H]3F)c3ncnc(N)c23)n1 [I-3] | < 1 | 0.01 to 0.1 | < 0.01 |  |  |  |  |
| CCNc1ccc2ccc(OC[C@H]3O[C@@H](n4cc(-c5ccn(C)n5)c5c(N)ncnc54)[C@@H](F)[C@@H]3O)cc2n1 [I-7] |  | 0.01 to 0.1 | < 0.01 | > 1 |  |  | IC50 (MOLM-13 cells [1]; MOLM-13, 96 h): < 1 µM |
| CNc1ccc2cc(CC[C@H]3C[C@@H](n4ccc5c(N)ncnc54)[C@H](O)[C@@H]3O)ccc2n1 [I-111] |  |  |  |  | < 0.01 | 0.1 to 1 | IC50 (METTL1/WDR4; [6]): > 1 µM; IC50 (MOLM-13 cells [1]; MOLM-13, 96 h): 1 to 10 µM |
| Nc1ccc2cc(CC[C@H]3C[C@@H](n4ccc5c(N)ncnc54)[C@H](O)[C@@H]3O)ccc2n1 [I-125] |  |  |  |  | < 0.01 | 0.1 to 1 | IC50 (METTL1/WDR4; [6]): > 1 µM; IC50 (MOLM-13 cells [1]; MOLM-13, 96 h): 1 to 10 µM |
| Nc1ncnc2c1ccn2[C@@H]1C[C@H](CCc2ccc3nccnc3c2)[C@@H](O)[C@H]1O [I-130] |  |  |  |  | < 0.01 |  | IC50 (METTL1/WDR4; [6]): > 1 µM; IC50 (MOLM-13 cells [1]; MOLM-13, 96 h): < 1 µM |
| Nc1ccc2ccc(CC[C@H]3C[C@@H](n4ccc5c(N)ncnc54)[C@H](O)[C@@H]3O)cc2n1 [I-138] |  |  |  |  | < 0.01 | 0.1 to 1 | IC50 (METTL1/WDR4; [6]): > 1 µM |
| Nc1ccc2ccc(CO[C@H]3C[C@@H](n4ccc5c(N)ncnc54)[C@H](O)[C@@H]3O)cc2n1 [I-139] |  |  |  |  | < 0.01 | < 0.01 | IC50 (METTL1/WDR4; [6]): > 1 µM |
| CNc1ccc2ccc(OC[C@H]3O[C@@H](n4cc(CC5CC5)c5c(N)ncnc54)[C@H](O)[C@@H]3O)cc2n1 [I-142] |  |  |  |  | 0.01 to 0.1 | < 0.01 | IC50 (METTL1/WDR4; [6]): > 1 µM; IC50 (MOLM-13 cells [2]): 1 to 10 µM |
| CNc1ccc2ccc(OC[C@H]3O[C@@H](n4cc(-c5ccn(C6CCC6)n5)c5c(N)ncnc54)[C@@H](F)[C@@H]3O)cc2n1 [I-143] |  |  |  | > 1 | 0.1 to 1 | < 0.01 | IC50 (MOLM-13 cells [2]): 1 to 10 µM |
| CNc1ccc2ccc(OC[C@H]3O[C@@H](n4cc(-c5ccn(C6COC6)n5)c5c(N)ncnc54)[C@@H](F)[C@@H]3O)cc2n1 [I-144] |  | 0.1 to 1 | < 0.01 | > 1 |  |  | IC50 (MOLM-13 cells [2]): 1 to 10 µM |
| CCc1cc(N)c2ccc(OC[C@H]3O[C@@H](n4cc(-c5ccn(C)n5)c5c(N)ncnc54)[C@@H](F)[C@@H]3O)cc2n1 [I-145] |  | 0.1 to 1 | < 0.01 | > 1 |  |  |  |
| CCCC(=O)c1cn([C@@H]2O[C@H](COc3ccc4ccc(NC)nc4c3)[C@@H](O)[C@@H]2F)c2ncnc(N)c12 [I-146] |  | > 1 | 0.01 to 0.1 | > 1 |  |  |  |
| CNc1ccc2ccc(OC[C@H]3O[C@@H](n4cc(-c5cc(C)n(C)n5)c5c(N)ncnc54)[C@@H](F)[C@@H]3O)cc2n1 [I-147] |  | > 1 | 0.01 to 0.1 | > 1 |  |  |  |
| CNc1ccc2sc(CC[C@H]3O[C@@H](n4cc(-c5ccn(C)n5)c5c(N)ncnc54)[C@@H](F)[C@@H]3O)cc2n1 [I-190] | < 1 |  |  |  |  |  | IC50 (PRMT5-MEP50): 0.01 to 0.1 µM; IC50 (METTL3/METTL14): < 0.01 µM |
| Cn1ccc(-c2cn([C@@H]3O[C@H](COc4ccc5cnc(N6CCC6)nc5c4)[C@@H](O)[C@@H]3F)c3ncnc(N)c23)n1 [I-199] | 1 to 10 |  |  |  |  |  | IC50 (PRMT5-MEP50): > 1 µM; IC50 (METTL3/METTL14): < 0.01 µM |
| Cn1ccc(-c2cn([C@@H]3C[C@H](CCc4ccc5ccc(N6CCC6)nc5c4)[C@@H](O)[C@@H]3F)c3ncnc(N)c23)n1 [I-211] | < 1 |  |  |  |  |  | IC50 (PRMT5-MEP50): > 1 µM; IC50 (METTL3/METTL14): < 0.01 µM |
| COCCN(C)C(=O)c1cn([C@@H]2O[C@H](COc3ccc4ccc(N5CCC5)nc4c3)[C@@H](O)[C@@H]2F)c2ncnc(N)c12 [I-217] | > 10 |  |  |  |  |  | IC50 (PRMT5-MEP50): > 1 µM; IC50 (METTL3/METTL14): 0.01 to 0.1 µM |
| Nc1ncnc2c1c(-c1ncco1)cn2[C@@H]1O[C@H](COc2ccc3ccc(N4CCC4)nc3c2)[C@@H](O)[C@@H]1F [I-219] | < 1 |  |  |  |  |  | IC50 (PRMT5-MEP50): > 1 µM; IC50 (METTL3/METTL14): < 0.01 µM |
| C=CCc1cn([C@@H]2O[C@H](COc3ccc4ccc(NC)nc4c3)[C@@H](O)[C@H]2O)c2ncnc(N)c12 [I-226] |  |  |  |  | < 0.01 | < 0.01 | IC50 (METTL1/WDR4): > 1 µM; IC50 (MOLM-13 cells [2]): < 1 µM |
| CNc1ccc2ccc(OC[C@H]3O[C@H](n4cc(C(O)C5CC5)c5c(N)ncnc54)[C@H](O)[C@@H]3O)cc2n1 (some centres unmarked) [I-227] |  |  |  |  | < 0.01 | < 0.01 | IC50 (METTL1/WDR4): > 1 µM; IC50 (MOLM-13 cells [2]): > 10 µM |
| CNc1ccc2ccc(OC[C@H]3O[C@@H](n4cc(-c5cn(C(C)C)cn5)c5c(N)ncnc54)[C@@H](F)[C@@H]3O)cc2n1 [I-233] |  |  |  | > 1 |  |  | IC50 (PRMT5-MEP50): > 1 µM; IC50 (METTL3/METTL14): 0.01 to 0.1 µM |
